Like-named read-outs stand apart in the source and are kept apart here.
Experiments:
wt HIV-1 RT [1] = molecular target: T1, wt HIV-1 RT (Human immunodeficiency virus type 1 group M subtype B, UniProt P04585); test: RT inhibition assay, RNA dependent DNA polymerase activity; type: biochemical; conditions: template/primer poly(rA).oligo(dT)12-18; substrate dTTP
T1 construct: Wild type (wt) version of recombinant HIV-1 RT were expressed with a histidine tag; histidine tag; made in house; host or cells: E. coli
Method: Wild type (wt) version of recombinant HIV-1 RT were expressed with a histidine tag in an E. coli protein expression system.
RT inhibition assay. The inhibition of HIV-1 RT RNA dependent DNA polymerase activity of DXG-TP was assessed under steady-state enzymatic kinetics by employing homopolymeric RNA templates/DNA primers (T/P) and a heteropolymeric RNA template/DNA primer. The heteropolymeric RNA template contains the HIV-1 primer binding sequence, US and R regions (designated as HIV-PBS). […] The oligodeoxynucleotide primer (dPR) is an 18-mer (5′-[…]-3′) which is complementary to the HIV-1 primer binding sequence. […] The reverse transcription reaction contained final concentrations of 50 mM Tris-HCl, pH 7.8, 60 mM KCl, 10 mM MgCl2, 0.1 U/ml homopolymeric T/P and 5 μM [^3H]dNTP substrate or 25 nM HIV-PBS/dPR and 5 μM each of dTTP, dCTP, dGTP and [-^32P]dATP in […]. […] Inhibition of dNTP incorporation/chain termination. The effect of DXG-TP on RT activity was also assessed using the chain termination/dNTP incorporation assay in which inhibition of nascent DNA synthesis (chain termination) was monitored based upon cDNA synthesis as previously described (Arts et al., 1993; J. Biol. Hem. 269:14672-14680 and Gu et al., 1995, Proc. Natl. Acad. Sci. USA 92:2760-2764). HIV-PBS RNA template and dPR DNA primer were used in this system. The RT reactions were performed in […] containing 50 mM Tris (pH 7.8), 75 mM KCl, 10 mM MgCl2, 100 μM of dNTPs. The HIV-PBS RNA template (50 nM) and [−^32P]-ATP labeled oligodeoxynucleotide primer (125 nM) were included in the reaction. The mixture was first denatured at 85° C. for 2 minutes, then cooled to 55° C. for 8 min, and finally cooled to 37° C. at which time recombinant HIV RT was added (42.5 nM). The reactions were allowed to proceed at 37° C. for 60 min in the presence or absence of inhibitors. The transcribed DNA products were separated on a 5% denaturing polyacrylamide gel and visualized by exposure to X-ray film.

[2] = Cytotoxicity, [3H]-thymidine uptake, HepG2; type: cell-based; conditions: human, HepG2 cells
Method: (§1) The cellular toxicity of the BCH compounds were assessed on various cells using [^3H]-thymidine uptake. The various cells, including Molt-4, HT1080, DU-145, HepG 2 and HSF, were plated at a concentration of 1-2×10^3 cells per well (96 well plates). However, PHA-stimulated PBMCs were cultured at a concentration of 4×10^4. After a 24 hr incubation period, 10-fold serial diluted compounds (10^−4 M to 10^−10 M) were added to the culture medium and the cells were further incubated for 72 hrs. [^3H]-thymidine was added during the final 18 hr incubation period. After incubation with the [^3H]-thymidine, the cells were washed once with PBS, treated with trypsin it the cells were adherent, and then resuspended in water (hypotonic lysing of cells) The cellular extract was applied directly to a Tomtec Harvester 96. Using this instrument the extracted DNA is adsorbed onto filters, washed and the incorporated [^3H]-thymidine is then counted.

[3] = Cytotoxicity, [3H]-thymidine uptake, HSF; type: cell-based; conditions: human, human skin fibroblasts (HSF)
Method: as §1

HIV-1IIIB = test: Anti-HIV-1 antiviral assay, laboratory strain HIV-1IIIB, RT activity in culture supernatants
Method: Most experiments were performed with a laboratory strain HIV-1III. […] The cells were incubated with virus using the indicated multiplicity of infection (MOI) for 2-3 hrs. The MOI used for each experiment was dependent upon the cell line and virus strain used, and was generally in the range of 0.005 to 0.5. For example, in assays performed using the established cell line MT-2, HIV-1IIIB at an MOI of 0.005 was used to infect cells. The unbound virus was then removed by washing the cells, followed by plating the cells into a 96-well plate. The infected cells were cultured in the presence of a serial concentrations of the test compound for 5-7 days. The anti-HIV-1 efficacy was determined by testing for HIV-1 RT activity in the cell culture supernatants. All assays were performed in duplicate and at least two independent experiments were performed. […] The susceptibilities of the HIV-1 variants to antiretroviral agents are expressed as the mean of the EC50 determinations.

[4] = Cytotoxicity, [3H]-thymidine uptake, DU145; type: cell-based; conditions: human, DU145 cells
Method: as §1

[5] = Cytotoxicity, [3H]-thymidine uptake, HT-1080; type: cell-based; conditions: human, HT-1080 cells
Method: as §1

recombinant HXB2-D 74V = test: microbe, parasite or virus in culture; type: cell-based, HIV-1; conditions: Human immunodeficiency virus 1, HXB2, read-out: EC50 in CBMCs
Method: (§2) HIV-1IIIB laboratory strain and HXB2-D recombinant of HIV-1 were kindly supplied by R. C. Gallo (Institute of Human Virology, Baltimore, Md.). […] The recombinant viruses were generated by transfection of proviral DNA into MT-4 cells with Lipofectamine using the protocol recommended by the manufacturer .(Gibco BRL, Montreal, Canada). […] Stock viruses were prepared from clarified culture supernatants by centrifugation and stored at −70° C. The viruses were titrated by limited dilution with a 4-fold serial dilution.

recombinant HXB2-D 184V = test: microbe, parasite or virus in culture; type: cell-based, HIV-1; conditions: Human immunodeficiency virus 1, HXB2, read-out: EC50 in CBMCs
Method: as §2

recombinant HXB2-D 65R = test: microbe, parasite or virus in culture; type: cell-based, HIV-1; conditions: Human immunodeficiency virus 1, HXB2, read-out: EC50 in CBMCs
Method: as §2

[6] = system: recombinant HXB2-D 41L/215Y/184V; test: microbe, parasite or virus in culture; type: cell-based, HIV-1; conditions: Human immunodeficiency virus 1, HXB2, read-out: EC50 in CBMCs
Method: as §2

[7] = system: recombinant HXB2-D 41L/70R/215Y/219Q; test: microbe, parasite or virus in culture; type: cell-based, HIV-1; conditions: Human immunodeficiency virus 1, HXB2, read-out: EC50 in CBMCs
Method: as §2

wt HIV-1 RT [8] = molecular target: T1, wt HIV-1 RT; test: Chain elongation/termination assay; type: biochemical; conditions: HIV-PBS template, dPR primer, raising inhibitor concentration
Method: RT inhibition assay. The inhibition of HIV-1 RT RNA dependent DNA polymerase activity of DXG-TP was assessed under steady-state enzymatic kinetics by employing homopolymeric RNA templates/DNA primers (T/P) and a heteropolymeric RNA template/DNA primer. The heteropolymeric RNA template contains the HIV-1 primer binding sequence, US and R regions (designated as HIV-PBS). […] The oligodeoxynucleotide primer (dPR) is an 18-mer (5′-[…]-3′) which is complementary to the HIV-1 primer binding sequence. […] Inhibition of dNTP incorporation/chain termination. […] HIV-PBS RNA template and dPR DNA primer were used in this system. The RT reactions were performed in […] containing 50 mM Tris (pH 7.8), 75 mM KCl, 10 mM MgCl2, 100 μM of dNTPs. […] The reactions were allowed to proceed at 37° C. for 60 min in the presence or absence of inhibitors. The transcribed DNA products were separated on a 5% denaturing polyacrylamide gel and visualized by exposure to X-ray film.
The chain elongation/termination assay provides a method to directly visualize the products of incorporation of dideoxynucleotide monophosphates into nascent DNA by monitoring the reaction products using polyacrylamide gel electrophoresis. The experiment was performed using wt HIV-1 RT, and HIV-PBS heteropolymeric template, and [^32p]ATP labeled dPR primer in the presence of various concentrations of RT inhibitor. […] As comparison, NNRTI nevirapine was also used in the assay.

[9] = system: HIV-1 clinical isolate 4877; test: microbe, parasite or virus in culture; type: cell-based; conditions: Human immunodeficiency virus 1, read-out: EC50 in CBMCs
Method: as §2
(§3) The population of HIV-1 in infected individual is quasispecies and the sensitivity of these different viruses found in clinical isolates to antiviral chemotherapy might be quite variable. In addition, HIV-1 isolates obtained from patients receiving long-term antiretroviral therapy might behave differently from cloned virus containing genetically engineered mutations in the RT gene. For these reasons, clinical isolates of HIV-1 from antiviral naive and drug-treated patients were assayed in PHA-stimulated CBMCs for their sensitivity to DXG and DAPD accompanied with approved antiretroviral agents. The genotype of the HIV-1 clinical isolates were determined as described above.

[10] = system: HIV-1 clinical isolate 4924; test: microbe, parasite or virus in culture; type: cell-based
Method: as §2, §3

[11] = system: recombinant HXB2-D 106A/181C; test: microbe, parasite or virus in culture; type: cell-based, HIV-1; conditions: Human immunodeficiency virus 1, HXB2, read-out: EC50 in CBMCs
Method: as §2

[12] = system: HIV-1 clinical isolate 4526; test: Antiviral assay, HIV-1 clinical isolate 4526, CBMCs; type: cell-based; conditions: Human immunodeficiency virus 1, naive
Method: as §2, §3

[13] = system: HIV-1 clinical isolate 4833; test: microbe, parasite or virus in culture; type: cell-based
Method: as §2, §3

[14] = system: recombinant HXB2-D 10R/46I/63P/82T/84V; test: microbe, parasite or virus in culture; type: cell-based, HIV-1; conditions: Human immunodeficiency virus 1, HXB2, read-out: EC50 in CBMCs
Method: as §2

Molecule: Cc1cn([C@H]2CC[C@@H](COP(=O)(O)OP(=O)(O)OP(=O)(O)O)O2)c(=O)[nH]c1=O [ddTTP, reference compound]
- IC50 (wt HIV-1 RT [1]): 24 ± 3 nM

Molecule: Nc1ccn([C@@H]2CS[C@H](CO)O2)c(=O)n1 [lamivudine, reference compound]
- CC50 at 72 h [2]: 350000 nM
- CC50 at 72 h [3]: 400000 nM
- EC50 (HIV-1IIIB; Human immunodeficiency virus 1, Jurkat, read-out: EC50, mean values ± SD): 530 ± 20 nM
- EC50 (HIV-1IIIB; Human immunodeficiency virus 1, MT2, read-out: EC50, mean values ± SD): 91 ± 80 nM
- EC50 (HIV-1IIIB; Human immunodeficiency virus 1, MT4, read-out: EC50, mean values ± SD): 56 ± 14 nM
- EC50 (HIV-1IIIB; Human immunodeficiency virus 1, read-out: EC50, mean values ± SD): 23 ± 11 nM
- CC50 at 72 h [4]: > 500000 nM
- CC50 at 72 h [5]: > 500000 nM
- EC50 (recombinant HXB2-D 74V): 120 ± 70 nM
- EC50 (recombinant HXB2-D 184V): > 50000 nM
- EC50 (recombinant HXB2-D 65R): 360 ± 170 nM
- EC50 [6]: > 50000 nM
- EC50 [7]: 62 ± 20 nM

Molecule: Nc1ccn([C@@H]2CS[C@H](COP(=O)(O)OP(=O)(O)OP(=O)(O)O)O2)c(=O)n1 [lamivudine-TP]
- chain termination / full-length products, in words (wt HIV-1 RT [8]): caused increasing chain termination but decreasing full-length products

Molecule: Cc1ccnc2c1NC(=O)c1cccnc1N2C1CC1 [nevirapine, reference compound]
- chain termination / full-length products, in words (wt HIV-1 RT [8]): showed the decrease of the full-length DNA products, but there were no extra chain termination bands generated
- EC50 [9]: 65 nM
- EC50 ([10]; Human immunodeficiency virus 1): > 10000 nM
- EC50 ([10]; Human immunodeficiency virus 1, read-out: EC50 in CBMCs): > 10000 nM
- EC50 [11]: > 10000 nM

Molecule: CC(C)(C)NC(=O)[C@@H]1C[C@@H]2CCCC[C@@H]2CN1C[C@@H](O)[C@H](Cc1ccccc1)NC(=O)[C@H](CC(N)=O)NC(=O)c1ccc2ccccc2n1 [saquinavir, reference compound]
- EC50 [12]: 6.3 nM
- decreased sensitivity compared to the baseline isolate 4526 [13]: about 20 fold
- EC50 ([13]; Human immunodeficiency virus 1, therapy Saquinavir (48 weeks), read-out: EC50 in CBMCs): 110 nM
- EC50 [14]: 75 nM

Molecule: (+) enantiomer of -D-1′,3′-dioxolane guanosine
- EC50 (HIV-1IIIB; read-out: EC50, mean values ± SD, MT-2 cells, HIV-1IIIB): 700 nM

From patent US6887879B2, “Pharmaceutical combination of antiviral agents” (priority 1999, dated 2005)
